{"source": "paper PMC2670245", "about": "(Bioorganic & medicinal chemistry, 2008)", "key": {"EMT-6 cells": {"tested_on": "EMT-6 cells", "test": "colony formation", "format": "cell-based, mouse"}, "MDA-MB435 cells": {"tested_on": "MDA-MB435 cells", "test": "colony formation", "format": "cell-based, human"}, "Panc-02": {"tested_on": "Panc-02", "conditions": "cited from earlier work"}, "σ2 receptor": {"target": "T1, σ2 receptor (Rattus norvegicus, UniProt Q5U3Y7)", "T1 sequence (Q5U3Y7 1-176)": "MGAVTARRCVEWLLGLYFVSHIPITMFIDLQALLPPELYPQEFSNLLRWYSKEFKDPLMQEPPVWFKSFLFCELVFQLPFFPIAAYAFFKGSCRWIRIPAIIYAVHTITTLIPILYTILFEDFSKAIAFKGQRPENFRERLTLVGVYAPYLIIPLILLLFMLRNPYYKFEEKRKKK", "test": "σ2 receptor competitive binding with [^3H]RHM-1", "conditions": "Ki of σ1/σ2 ratio"}, "5-HT3": {"target": "5-HT3", "conditions": "read-out: Ki 5-HT3; cited from earlier work"}, "5-HT4": {"target": "5-HT4", "conditions": "read-out: Ki 5-HT4; cited from earlier work"}}, "note": "Entries after “also recorded” stand apart in the source; their conditions may differ."}
{"smiles": "COc1ccc(C)cc1NC(=O)OC1CC2CCCC(C1)N2Cc1ccc(N(C)C)cc1", "note": "(centres unmarked) [WC-26, 9-(4-(Dimethylamino)benzyl)-9-azabicyclo[3.3.1]nonan-3-yl-2-methoxy-5-methyl-phenylcarbamate]", "values": [{"measurement": "clonogenic survival, combination with DOX compared to DOX alone", "setting": "EMT-6 cells; EMT-6, 2 μM WC-26 16 h, then range of DOX concentrations added for 24 h", "result": "large decrease in clonogenic survival"}, {"measurement": "cell kill as single agent", "setting": "EMT-6 cells; EMT-6, 2 μM WC-26 alone, 40 h", "result": "no measureable cell kill; also recorded: no tumor cell kill"}, {"measurement": "clonogenic survival, combination with DOX compared to DOX alone", "setting": "MDA-MB435 cells; MDA-MB435, 2 μM WC-26 16 h, then range of DOX concentrations added for 24 h", "result": "large decrease in clonogenic survival"}, {"measurement": "cell kill as single agent", "setting": "MDA-MB435 cells; MDA-MB435, 2 μM WC-26 alone, 40 h", "result": "no measureable cell kill; also recorded: no tumor cell kill"}, {"measurement": "apoptosis in treated tumors", "setting": "Panc-02; flow cytometry", "result": "dose-dependent increases in apoptosis"}, {"measurement": "systemic toxicity", "setting": "Panc-02; treated mice", "result": "no evidence of systemic toxicity"}]}
{"smiles": "COc1ccc(C)cc1NC(=O)OC1CC2CCCC(C1)N2Cc1ccc(CCF)cc1", "note": "(centres unmarked) [WC-59, 9-(4-(2-Fluoroethyl)benzyl)-9-azabicyclo[3.3.1]nonan-3-yl-2-methoxy-5-methyl-phenylcarbamate]", "values": [{"measurement": "σ1/σ2 (Ki ratio)", "setting": "σ2 receptor", "result": "2,087"}]}
{"smiles": "COc1cccc2c1C(=O)c1c(O)c3c(c(O)c1C2=O)C[C@@](O)(C(=O)CO)C[C@@H]3O[C@H]1C[C@H](N)[C@H](O)[C@H](C)O1", "note": "[DOX, doxorubicin, reference compound]", "values": [{"measurement": "tumor cell kill as single agent", "setting": "EMT-6 cells; EMT-6, DOX <20 μM, 24 h", "result": "no tumor cell kill"}, {"measurement": "tumor cell kill as single agent", "setting": "MDA-MB435 cells; MDA-MB435, DOX <20 μM, 24 h", "result": "no tumor cell kill"}]}
{"smiles": "COc1ccc(C)cc1NC(=O)OC1CC2CCCC(C1)N2Cc1ccccc1", "note": "(centres unmarked) [Compound 6, 9-Benzyl-9-azabicyclo[3.3.1]nonan-3-yl-2-methoxy-5-methylphenylcarbamate]", "values": [{"measurement": "Ki", "setting": "5-HT3", "result": "> 1000", "unit": "nM"}, {"measurement": "Ki", "setting": "5-HT4", "result": "> 1000", "unit": "nM"}]}
